Data reported in patent US11400160B2, “Multifunctional conjugates” (E.P.O.S IASIS Research and Development Limited, priority 2017, dated 2022).

Legend:
RAW264.7 cells = experiment: In vitro osteoclastogenesis of RAW264.7 (TRAP staining); type: cell-based, murine; details: RANKL-differentiated; γ-tocopherol at 1 μg/ml and 201 μg/ml; bpp(OEt) at increasing concentrations; FIG. 4
Method: (§1) Human peripheral blood mononuclear cells (PBMCs) and the RAW264.7 murine monocytic cell line were differentiated into osteoclast-like cells in the presence of RANKL plus M-CSF and have been used as model systems of osteoclastogenesis. Osteoclast-like cells, from Giant Cell Tumours (GCT) of bone specimens from three independent donors were used to investigate the effect of compounds of the invention on the bone resorbing activity of mature osteoclasts.
Cells were cultured in 96-well plates at a density of 1×10^4 cells/well in DMEM medium with 10% FCS, L-glutamine (2 mM) and Hepes (20 mM). Cells were allowed to attach for 4 hrs before treatment with RANKL (50 ng/ml) in the presence or absence of increasing concentrations of compounds of the invention as above. Medium and treatments were replaced on day three and TRAP activity determined on day 5. The overall number of viable cells were determined by crystal violet staining.
Osteoclast cultures established by the differentiation of RAW264.7 cells in wells were fixed and stained for tartrate resistant acid phosphatase (TRAP) as recommended by the manufacturer on days 4 and 5. TRAP positive cells were visualised by light microscopy and images taken with a digital camera.

[1] = test system: mature osteoclasts isolated from human Giant Cell Tumours (GCT) of bone; experiment: Bone resorption by mature osteoclasts from Giant Cell Tumours of bone; type: cell-based; details: osteoclasts from human GCT of bone on whale dentine, 5 days
Excerpt: as §1
To determine the effect of compounds of the invention on bone resorbing activity of mature osteoclast, cultured cells isolated from primary human Giant Cell Tumours of bone specimens were used. These cells were plated on whale dentine slices in 96-well plates at a density of 1×10^5/well and treated for 5 days with increasing concentrations of compounds of the invention. Medium and treatments were replaced on day three and pit formation determined on day 5.
Whale dentine slices will be washed in extran, rinsed with distilled water, washed in 70% ethanol and dried overnight. […] Images will be analysed using ImageQuant software and the area of resorption determined for each dentine slice (quadruplicate dentine slices for each treatment). Results are expected to be average resorption area +/− standard errors of the mean (SEM) and the significant differences between treatments will be determined using Students t-tests (2-tailed, unpaired).

Balb/c Nu/Nu mice = experiment: Intratibial injection of compounds, micro-CT trabecular bone volume; type: in vivo; details: 10 μl into tibial marrow space, 3 weeks, μCT; compared to the maternal BP compound; preliminary data; FIG. 8
Method: Four week old female Balb/c Nu/Nu mice were housed under pathogen free conditions, in accordance with the guidelines approved by the Institute of Medical and Veterinary Science animal ethics research committee. Mice were randomly assigned into 3 groups of 4 animals. The left tibia was wiped with 70% ethanol and a 26 gauge needle coupled to a Hamilton syringe, was inserted through the tibial plateau with the knee flexed and 10 μl of each drug injected into the marrow space. Mice were humanely killed 3 weeks post drug administration and bone morphometric parameters were assessed using high resolution micro-CT and histology.
• Group 1: Bpp(OEt) (BP) (20 μM) • Group 2: γ-Tocotrienol (20 μM) • Group 3: γ-Tocotrienol-BP conjugate (20 μM) Micro-Computer Tomography Analysis
Both the right and left tibiae of each animal were mounted in the CT specimen tube and placed securely into the SkyScan-1072 X-ray micro-CT Scanner (Aartselaar, Belgium). The program was commenced with magnification set to give scan slices of 5.2 microns. Three-dimensional (3D) images were generated using Cone-Beam reconstruction and 3D visualisation (Skyscan). Using the two dimensional (2D) images obtained from the micro-CT scan, the growth plate was identified and 750 sections, starting from the growth plate/tibial interface and moving down the tibia, were selected. […]

[2] = test system: metastatic breast cancer cell lines (MCF-7, MDA-MB231, MDA-MB231TXSA); experiment: Cell viability / antiproliferative activity, breast cancer lines; type: cell-based
Method: Immortalised osteolytic metastatic breast cancer cell lines, a) hormone-dependent MCF-7 and b) hormone refractory MDA-MB231, together with the daughter line MDA-MB231TXSA were incubated with 5 gradual concentrations of compounds of the invention as described below. Cell viability was assessed with the crystal violet colorimetric assay and IC50s were evaluated.
Medium was removed from cell cultures and cells were fixed with 4% v/v formaldehyde for 5 mins at room temperature. Formalin was then removed and CV added for 10 mins at room temperature followed by several washes with dsH2O. Samples were allowed to dry overnight. The following day, 10% acetic acid was added for 15 mins and optical density at 620 nm was measured. Optical densities versus compound concentrations were plotted in graphs and IC50s estimated by linear regression analysis using the WorkOut (VictorX4) software.
MCF-7, MDA-MB231 and MDA-MB231TXSA cells were seeded in 96-well-plates and allowed to attach overnight. The following day media were replaced with fresh media containing the following compounds: Both free tetraethyl methylbisphosphonate (bpp(OEt)) and bpp(OEt) in 1:1 combination with the free chromanol and the biphosphonate conjugates were tested at 5 gradual concentrations of: 0.02, 0.04, 0.06, 0.08 and 0.1 mM.
Cells were cultured in the presence of the compounds for 72 hrs and viability was assessed on day 3 by crystal violet assay. The cell lines were selected for their high bone metastatic potential. The fluorescently transfected line MB231TXSA, derived from line MB231 is also used in animal studies (WP7).

[3] = test system: Caspase-3 activity in MB231 breast cancer cell-line; experiment: Caspase-3 enzymatic activity assay; type: cell-based
Method: Cells were grown in 12 well-plates in the presence of IC50 concentrations of compounds of the invention or culture medium with 0.1% v/v ethanol as control and were washed with PBS and incubated with lysis buffer for 15 mins at 4° C. Lysates were centrifuged at 15000 g. 20 μl of each lysate suspension was incubated with 100 μl of protease buffer containing 10 μM of fluorescent substrate zDEVD-AFC (3 samples/lysate) for 4 hrs at room temperature. Caspase-3 enzymatic activity was measured every 1 hr by fluorescence with excitation at 405 nm and emission at 515/30 nm.
Fluorescence measurements were plotted in graphs against time and were statistically analysed by two-way ANOVA followed by Bonferroni post-tests to identify statistically significant apoptotic activities of compounds of the invention (see FIG. 3).

| Structure (SMILES) | osteoclastogenesis of Raw264.7 (RAW264.7 cells) | bone resorption by already mature osteoclasts [1] | trabecular bone volume at the site of injection (Balb/c Nu/Nu mice) | antiproliferative activity compared with bpp(OEt) ([2]; esterified compounds and 1:1 mixtures) | antiproliferative activity compared with γ-tocopherol ([2]; upon esterification of γ-tocopherol) | effect on cell viability ([2]; viability assays and IC50s, 72 hrs) | pro-apoptotic activity (Caspase-3 activity) ([3]; IC50 concentrations, two-way ANOVA with Bonferroni post-tests) | time-point at which the increased Caspase-3 activity was present ([3]; measured every 1 hr for 4 hrs) |
| --- | --- | --- | --- | --- | --- | --- | --- | --- |
| Cc1c(O)cc2c(c1C)O[C@](C)(CCC[C@H](C)CCC[C@H](C)CCCC(C)C)CC2 [γ-toc, γ-tocopherol, reference compound] | increased osteoclastogenesis | inhibited bone resorption | significant increase in trabecular bone volume |  |  |  |  |  |
| CCOP(=O)(OCC)C(CCC(=O)Oc1cc2c(c(C)c1C)OC(C)(CCCC(C)CCCC(C)CCCC(C)C)CC2)P(=O)(OCC)OCC (stereo not shown) [γ-toc-bpp(OEt), γ-tocopheryl bisphosphonic ester] |  | inhibited bone resorption | significant increase in trabecular bone volume | increased | increased | reduced cell viability | statistically significant pro-apoptotic activities | 3 h |
